Laboratory results from patent US7141570B2, “N-aryl-2-oxazolidinone-5-carboxamides and their derivatives” (Pharmacia & Upjohn Company, priority 2002, dated 2006).
In brackets after ≈: the same amount, converted by molar mass.

Experiments:
E. Faecium (EFAE 12712) = assay: MIC, agar dilution; assay type: cell-based; conditions: Enterococcus faecium, E. Faecium 12712, overnight at 35° C.
Procedure: (§1) The in vitro MICs of test compounds were determined by a standard agar dilution method. A stock drug solution of each analog was prepared in the preferred solvent, usually DMSO:H2O (1:3). Serial 2-fold dilutions of each sample are made using 1.0 ml aliquots of sterile distilled water. To each 1.0 ml aliquot of drug was added 9 ml of molten Mueller Hinton agar medium. The drug-supplemented agar was mixed, poured into 15×100 mm petri dishes, and allowed to solidify and dry prior to inoculation.
(§2) Vials of each of the test organisms are maintained frozen in the vapor phase of a liquid nitrogen freezer. Test cultures are grown overnight at 35° C. on the medium appropriate for the organism. Colonies are harvested with a sterile swab, and cell suspensions are prepared in Trypticase Soy broth (TSB) to equal the turbidity of a 0.5 McFarland standard. A 1:20 dilution of each suspension was made in TSB. The plates containing the drug supplemented agar are inoculated with a 0.001 ml drop of the cell suspension using a Steers replicator, yielding approximately 10^4 to 10^5 cells per spot. The plates are incubated overnight at 35° C.
(§3) Following incubation the Minimum Inhibitory Concentration (MIC μg/ml), the lowest concentration of drug that inhibits visible growth of the organism, was read and recorded.

S. pneumonia (SPNE 9912) = assay: MIC, agar dilution; assay type: cell-based; conditions: S. pneumonia 9912, overnight at 35° C.
Procedure: as §1, §2, §3

[1] = tested on: H. influenzae (HINF 30063); assay: MIC, agar dilution; assay type: cell-based; conditions: Haemophilus influenzae, H. influenzae 30063, overnight at 35° C.
Procedure: as §1, §2, §3

[2] = tested on: M. catarrhalis (MCAT 30607); assay: MIC, agar dilution; assay type: cell-based; conditions: Moraxella catarrhalis, M. catarrhalis 30607, overnight at 35° C.
Procedure: as §1, §2, §3

S. aureus (SAUR 31583) = assay: MIC, agar dilution; assay type: cell-based; conditions: Staphylococcus aureus, S. aureus 31583, overnight at 35° C.
Procedure: as §1, §2, §3

E. Faecalis (EFAE 9217) = assay: MIC, agar dilution; assay type: cell-based; conditions: Enterococcus faecalis, E. Faecalis 9217, overnight at 35° C.
Procedure: as §1, §2, §3

[3] = tested on: S. epidermidis (SEPI 30593); assay: MIC, agar dilution; assay type: cell-based; conditions: Staphylococcus epidermidis, S. epidermidis 30593, overnight at 35° C.
Procedure: as §1, §2, §3

S. pyogenes (SPYO 152) = assay: MIC, agar dilution; assay type: cell-based; conditions: Streptococcus pyogenes, S. pyogenes 152, overnight at 35° C.
Procedure: as §1, §2, §3

[4] = tested on: H. influenzae (HINF 31810); assay: MIC, agar dilution; assay type: cell-based; conditions: Haemophilus influenzae, H. influenzae 31810, overnight at 35° C.
Procedure: as §1, §2, §3

S. aureus (SAUR 9213) = assay: MIC, agar dilution; assay type: cell-based; conditions: Staphylococcus aureus, S. aureus 9213, overnight at 35° C.
Procedure: as §1, §2, §3

Structure (SMILES) | melting point [°C] | MIC (E. Faecium (EFAE 12712)) [µg/mL] | MIC (S. pneumonia (SPNE 9912)) [µg/mL] | MIC [1] [µg/mL] | MIC [2] [µg/mL] | MIC (S. aureus (SAUR 31583)) [µg/mL] | MIC (E. Faecalis (EFAE 9217)) [µg/mL] | MIC [3] [µg/mL] | MIC (S. pyogenes (SPYO 152)) [µg/mL] | MIC [4] [µg/mL] | MIC (S. aureus (SAUR 9213)) [µg/mL]
CCN(CC)Cc1ccc(OCC(=O)N2CCN(c3ccc(N4C[C@H](CNC(C)=O)OC4=O)cc3F)CC2)cc1 [Compound 8] | – | 32 (≈ 57.6 µM) | 2 (≈ 3.6 µM) | > 64 | 32 (≈ 57.6 µM) | > 64 | 32 (≈ 57.6 µM) | 8 (≈ 14.4 µM) | 2 (≈ 3.6 µM) | > 64 | 32 (≈ 57.6 µM)
O=C(COc1ccc(CN2CCOCC2)cc1)N1CCN(c2ccc(N3C[C@H](CNC(=S)C4CC4)OC3=O)cc2F)CC1 [Compound 18] | – | 2 (≈ 3.27 µM) | 0.25 (≈ 0.409 µM) | 64 (≈ 105 µM) | 2 (≈ 3.27 µM) | 16 (≈ 26.2 µM) | 1 (≈ 1.63 µM) | 1 (≈ 1.63 µM) | 0.25 (≈ 0.409 µM) | 32 (≈ 52.3 µM) | 4 (≈ 6.54 µM)
COc1ccc(CCCC(=O)N2CCN(c3ccc(N4C[C@H](CNC(C)=O)OC4=O)cc3F)CC2)cc1 [Example 41, N-{[(5S)-3-(3-Fluoro-4-{4-[4-(4-methoxyphenyl)butanoyl]piperazine-1-yl}phenyl)-2-oxo-1,3-oxazolidin-5-yl]methyl}acetamide] | 164 to 165 | – | – | – | – | – | – | – | – | – | –
CC(=O)NC[C@H]1CN(c2ccc(N3CCN(C(=O)CCC(=O)c4ccc(Br)cc4)CC3)c(F)c2)C(=O)O1 [Example 44, N-{[(5S)-3-(4-{4-[4-(4-Bromophenyl)-4-oxobutanoyl]-1-piperazinyl}-3-fluorophenyl)-2-oxo-1,3-oxazolidin-5-yl]methyl}acetamide] | 197 to 198 | – | – | – | – | – | – | – | – | – | –
CCC(=S)NC[C@H]1CN(c2ccc(N3CCN(C(=O)COc4ccc(CN5CCOCC5)cc4)CC3)c(F)c2)C(=O)O1 [Compound 17] | – | 2 (≈ 3.33 µM) | 0.25 (≈ 0.417 µM) | 64 (≈ 107 µM) | 4 (≈ 6.67 µM) | 32 (≈ 53.4 µM) | 1 (≈ 1.67 µM) | 2 (≈ 3.33 µM) | 0.5 (≈ 0.834 µM) | 32 (≈ 53.4 µM) | 8 (≈ 13.3 µM)
CCC(=S)NC[C@H]1CN(c2ccc(N3CCN(C(=O)COc4ccc(CN5CCN(C)CC5)cc4)CC3)c(F)c2)C(=O)O1 [Compound 22] | – | 2 (≈ 3.26 µM) | 0.125 (≈ 0.204 µM) | 32 (≈ 52.2 µM) | 2 (≈ 3.26 µM) | 32 (≈ 52.2 µM) | – | 2 (≈ 3.26 µM) | 0.25 (≈ 0.408 µM) | 16 (≈ 26.1 µM) | 8 (≈ 13.1 µM)

Further lines, results first:

melting point [°C] | MIC (E. Faecium (EFAE 12712)) [µg/mL] | MIC (S. pneumonia (SPNE 9912)) [µg/mL] | MIC [1] [µg/mL] | MIC [2] [µg/mL] | MIC (S. aureus (SAUR 31583)) [µg/mL] | MIC (E. Faecalis (EFAE 9217)) [µg/mL] | MIC [3] [µg/mL] | MIC (S. pyogenes (SPYO 152)) [µg/mL] | MIC [4] [µg/mL] | MIC (S. aureus (SAUR 9213)) [µg/mL] | Structure (SMILES)
163 to 164 | – | – | – | – | – | – | – | – | – | – | CCC(=S)NC[C@H]1CN(c2ccc(N3CCN(C(=O)COc4ccc(CN(C)C)cc4)CC3)c(F)c2)C(=O)O1 [Example 4, N-[((5S)-3{4-[4-({4-[(Dimethylamino)methyl]phenoxy}acetyl)piperazin-1-yl]-3-fluorophenyl}-2-oxo-1,3-oxazolidin-5-yl)methyl]propanethioamide]
– | 1 (≈ 1.76 µM) | 0.125 (≈ 0.219 µM) | 16 (≈ 28.1 µM) | 2 (≈ 3.51 µM) | 4 (≈ 7.02 µM) | 1 (≈ 1.76 µM) | 1 (≈ 1.76 µM) | 0.125 (≈ 0.219 µM) | 8 (≈ 14 µM) | 2 (≈ 3.51 µM) | CN(C)Cc1ccc(OCC(=O)N2CCN(c3ccc(N4C[C@H](CNC(=S)C5CC5)OC4=O)cc3F)CC2)cc1 [Compound 2]
– | 2 (≈ 3.35 µM) | 0.25 (≈ 0.418 µM) | 32 (≈ 53.5 µM) | 2 (≈ 3.35 µM) | 8 (≈ 13.4 µM) | 2 (≈ 3.35 µM) | 1 (≈ 1.67 µM) | 0.25 (≈ 0.418 µM) | 32 (≈ 53.5 µM) | 2 (≈ 3.35 µM) | CCN(CC)Cc1ccc(OCC(=O)N2CCN(c3ccc(N4C[C@H](CNC(=S)C5CC5)OC4=O)cc3F)CC2)cc1 [Compound 10]
– | 2 (≈ 3.43 µM) | 0.125 (≈ 0.215 µM) | 32 (≈ 54.9 µM) | 2 (≈ 3.43 µM) | 16 (≈ 27.5 µM) | – | 2 (≈ 3.43 µM) | 0.25 (≈ 0.429 µM) | 16 (≈ 27.5 µM) | 4 (≈ 6.86 µM) | CC(=O)NC[C@H]1CN(c2ccc(N3CCN(C(=O)COc4ccc(CN5CCN(C)CC5)cc4)CC3)c(F)c2)C(=O)O1 [Compound 24]
174 to 175 | – | – | – | – | – | – | – | – | – | – | CN(C)Cc1ccc(C(=O)CCC(=O)N2CCN(c3ccc(N4C[C@H](CNC(=S)C5CC5)OC4=O)cc3F)CC2)cc1 [Example 14, N-[((5S)-3-{4-[4-(4-{4-[(Dimethylamino)methyl]phenyl}-4-oxobutanoyl)-1-piperazinyl]-3-fluorophenyl}-2-oxo-1,3-oxazolidin-5-yl)methyl]cyclopropanecarbothioamide]
